Measurements from BigSolDB 2.1.

COc1ccc(Cl)cc1C(=O)NCCc1ccc(S(=O)(=O)NC(=O)NC2CCCCC2)cc1
solubility (mole fraction)
Conditions	283.15 K	288.15 K	293.15 K	298.15 K	303.15 K	308.15 K	313.15 K	318.15 K	323.15 K
in acetone	0.000443	0.000559	0.000701	0.00088	0.00112	0.0014	0.00175	0.00219	0.00269
in ethanol	0.000103	0.000145	0.000196	0.000259	0.000333	0.000437	0.00062	0.000893	0.00122
in ethyl acetate	8.63e-05	0.000115	0.000146	0.000186	0.000236	0.000307	0.000394	0.000511	0.000647
in isopropanol	7.96e-05	9.98e-05	0.00013	0.000176	0.000216	0.000286	0.000422	0.000607	0.000892
in methanol	0.000129	0.000172	0.00022	0.0003	0.000378	0.000477	0.00066	0.00103	0.00137
in water	8.38e-08	8.83e-08	1.05e-07	1.28e-07	1.64e-07	2.3e-07	3.24e-07	4.54e-07	7.84e-07
